Laboratory results from patent US12258342B2, “Class of DNA gyrase and/or topoisomerase IV inhibitors with activity against gram-positive and gram-negative bacteria” (Univerza v Ljubljani, priority 2018, dated 2025).
≈ marks a conversion by molar mass, not a printed value.

Columns and labels:
[1] = molecular target: E. coli DNA gyrase (Escherichia coli (strain K12), UniProt P0AES6); test: DNA gyrase inhibition assay (Inspiralis, streptavidin-coated plates); assay type: biochemical
Experimental: Inhibitory activities for compounds of the present invention were determined on E. coli and S. aureus DNA gyrase and topoisomerase IV in an assay from Inspiralis on streptavidin-coated 96-well microtiter plates from Thermo scientific Pierce. […] After washing off the unbound oligonucleotide, the enzyme test was performed. […] Reaction solutions were incubated at 37° C. for 30 min. After that, the TF buffer (50 mM NaOAc with pH 5.0, 50 mM NaCl and 50 mM MgCl2) was added to terminate the enzymatic reaction. After additional incubation for 30 min at rt, during which biotin-oligonucleotide-plasmid triplex was formed, the unbound plasmid was washed off using TF buffer and SybrGOLD in T10 buffer (10 mM Tris HCl with pH 8.0 and 1 mM EDTA) was added. […] GraphPad Prism 6.0 software was used to calculate the IC50 values. The result is given as the average value of three independent measurements. […] Chemoth.

[2] = system: E. faecium ATCC 35667; test: Microbroth dilution MIC (CLSI); conditions: Enterococcus faecium, ATCC35667, read-out: MIC (μg/mL) E. faecium ATCC 35667
[3] = system: S. aureus ATCC 29213; test: Microbroth dilution MIC (CLSI); conditions: Staphylococcus aureus, ATCC29213, read-out: MIC (μg/mL) S. aureus ATCC 29213
[4] = system: E. coli ATCC 25922; test: Microbroth dilution MIC (CLSI); conditions: Escherichia coli, ATCC25922, read-out: MIC (μg/mL) E. coli ATCC 25922
[5] = system: E. faecalis ATCC 29212; test: Microbroth dilution MIC (CLSI); conditions: Enterococcus faecalis, ATCC29212, read-out: MIC (μg/mL) E. faecalis ATCC 29212

| SMILES | IC50 [1] [nM] | MIC [2] [µg/mL] | MIC [3] [µg/mL] | MIC [4] [µg/mL] | MIC [5] [µg/mL] |
| --- | --- | --- | --- | --- | --- |
| O=C(O)c1ccc2nc(NC(=O)c3cc(Br)c(Br)[nH]3)sc2c1 [Example 2, 2-(4,5-dibromo-1H-pyrrole-2-carboxamido)benzo[d]thiazole-6-carboxylic acid] | 12 ± 7 | 5.56 (≈ 12.5 µM) | > 64 | > 64 | 2.78 (≈ 6.25 µM) |
| O=C(O)c1ccc2nc(NC(=O)c3cc(Cl)c(Cl)[nH]3)sc2c1 [Example 3, 2-(4,5-dichloro-1H-pyrrole-2-carboxamido)benzo[d]thiazole-6-carboxylic acid] | 19 ± 1 | 17.8 (≈ 50 µM) | > 64 | > 64 | 8.9 (≈ 25 µM) |
| Cc1[nH]c(C(=O)Nc2nc3cc(C(=O)O)ccc3s2)c(Cl)c1Cl [Example 4, 2-(3,4-dichloro-5-methyl-1H-pyrrole-2-carboxamido)benzo[d]thiazole-5-carboxylic acid] | 830 ± 150 | > 64 | > 64 | > 64 | > 64 |
| Cc1[nH]c(C(=O)Nc2nc3c(F)cc(C(=O)O)cc3s2)c(Cl)c1Cl [Example 5, 2-(3,4-dichloro-5-methyl-1H-pyrrole-2-carboxamido)-4-fluorobenzo[d]thiazole-6-carboxylic acid] | < 5 | 0.61 (≈ 1.57 µM) | 1 (≈ 2.58 µM) | 16 (≈ 41.2 µM) | 0.0625 (≈ 0.161 µM) |
| O=C(O)c1cc(O)c2nc(NC(=O)c3cc(Br)c(Br)[nH]3)sc2c1 [Example 6, 2-(4,5-dibromo-1H-pyrrole-2-carboxamido)-4-hydroxybenzo[d]thiazole-6-carboxylic acid] | 46 ± 33 | > 64 | > 64 | > 64 | 32 (≈ 69.4 µM) |
| Cc1[nH]c(C(=O)Nc2nc3c(O)cc(C(=O)O)cc3s2)c(Cl)c1Cl [Example 7, 2-(3,4-dichloro-5-methyl-1H-pyrrole-2-carboxamido)-4-hydroxybenzo[d]thiazole-6-carboxylic acid] | < 5 | 1.21 (≈ 3.13 µM) | 16 (≈ 41.4 µM) | > 64 | 2 (≈ 5.18 µM) |
| COc1cc(C(=O)O)cc2sc(NC(=O)c3[nH]c(C)c(Cl)c3Cl)nc12 [Example 8, 2-(3,4-dichloro-5-methyl-1H-pyrrole-2-carboxamido)-4-methoxybenzo[d]thiazole-6-carboxylic acid] | 7.6 ± 3.4 | 1.25 (≈ 3.12 µM) | 2 (≈ 5 µM) | 64 (≈ 160 µM) | 0.25 (≈ 0.625 µM) |
| Cc1[nH]c(C(=O)Nc2nc3c(OCCN)cc(C(=O)O)cc3s2)c(Cl)c1Cl.Cl [Example 11, 2-((6-carboxy-2-(3,4-dichloro-5-methyl-1H-pyrrole-2-carboxamido)benzo[d]thiazol-4-yl)oxy)ethan-1-aminium chloride] | < 5 | > 64 | > 64 | > 64 | > 64 |
| Cc1[nH]c(C(=O)Nc2nc3c(OCCN4CCOCC4)cc(C(=O)NCC#N)cc3s2)c(Cl)c1Cl.Cl [Example 25, 4-(2-((6-((cyanomethyl)carbamoyl)-2-(3,4-dichloro-5-methyl-1H-pyrrole-2-carboxamido)benzo[d]thiazol-4-yl)oxy)ethyl)morpholin-4-ium chloride] | < 5 | – | > 64 | > 64 | > 64 |
| Cc1[nH]c(C(=O)Nc2nc3ccc(C(=O)NCC#N)cc3s2)c(Cl)c1Cl [Example 26, N-(cyanomethyl)-2-(3,4-dichloro-5-methyl-1H-pyrrole-2-carboxamido)benzo[d]thiazole-6-carboxamide] | 16 ± 4 | – | > 64 | > 64 | > 64 |
| Cc1[nH]c(C(=O)Nc2nc3c(OCc4ccccc4)cc(C(=O)NCC#N)cc3s2)c(Cl)c1Cl [Example 27, 4-(benzyloxy)-N-(cyanomethyl)-2-(3,4-dichloro-5-methyl-1H-pyrrole-2-carboxamido)benzo[d]thiazole-6-carboxamide] | 5.4 ± 2 | – | 4 (≈ 7.78 µM) | > 64 | 16 (≈ 31.1 µM) |
| Cc1[nH]c(C(=O)Nc2nc3c(OCc4ccccc4)cc(C(N)=O)cc3s2)c(Cl)c1Cl [Example 28, 4-(benzyloxy)-2-(3,4-dichloro-5-methyl-1H-pyrrole-2-carboxamido)benzo[d]thiazole-6-carboxamide] | 11 ± 2 | – | > 64 | > 64 | > 64 |
| Cc1[nH]c(C(=O)Nc2nc3c(OCc4ccccc4)cc(-c4nnn[nH]4)cc3s2)c(Cl)c1Cl [Example 29, N-(4-(benzyloxy)-6-(1H-tetrazol-5-yl)benzo[d]thiazol-2-yl)-3,4-dichloro-5-methyl-1H-pyrrole-2-carboxamide] | – | – | 4 (≈ 7.99 µM) | > 64 | 0.125 (≈ 0.25 µM) |
| COC(=O)c1cc(N2CC[C@H](NC(=O)OC(C)(C)C)C2)c2nc(NC(=O)c3[nH]c(C)c(Cl)c3Cl)sc2c1 [Example 33, methyl (S)-4-(3-((tert-butoxycarbonyl)amino)pyrrolidin-1-yl)-2-(3,4-dichloro-5-methyl-1H-pyrrole-2-carboxamido)benzo[d]thiazole-6-carboxylate] | > 10000 | – | ≥ 32 | ≥ 32 | ≥ 32 |
| COC(=O)c1cc(N2CC[C@H](N)C2)c2nc(NC(=O)c3[nH]c(C)c(Cl)c3Cl)sc2c1.Cl [Example 34, (S)-1-(2-(3,4-dichloro-5-methyl-1H-pyrrole-2-carboxamido)-6-(methoxycarbonyl)benzo[d]thiazol-4-yl)pyrrolidin-3-aminium chloride] | 48 ± 9 | – | ≥ 32 | ≥ 32 | ≥ 32 |
| Cc1[nH]c(C(=O)Nc2nc3c(N4CC[C@H](NC(=O)OC(C)(C)C)C4)cc(C(=O)O)cc3s2)c(Cl)c1Cl [Example 35, (S)-4-(3-((tert-butoxycarbonyl)amino)pyrrolidin-1-yl)-2-(3,4-dichloro-5-methyl-1H-pyrrole-2-carboxamido)benzo[d]thiazole-6-carboxylic acid] | < 5 | – | 0.25 (≈ 0.451 µM) | ≥ 32 | 0.0312 (≈ 0.0564 µM) |
| Cc1[nH]c(C(=O)Nc2nc3c(N4CC[C@H](N)C4)cc(C(=O)O)cc3s2)c(Cl)c1Cl.Cl [Example 36, (S)-1-(6-carboxy-2-(3,4-dichloro-5-methyl-1H-pyrrole-2-carboxamido)benzo[d]thiazol-4-yl)pyrrolidin-3-aminium chloride] | < 5 | – | 4 | ≥ 32 | 0.5 |
| O=C(O)c1cc(OCc2cc(=O)c(O)c[nH]2)c2nc(NC(=O)c3cc(Br)c(Br)[nH]3)sc2c1 [Example 38, 2-(4,5-dibromo-1H-pyrrole-2-carboxamido)-4-((5-hydroxy-4-oxo-1,4-dihydropyridin-2-yl)methoxy)benzo[d]thiazole-6-carboxylic acid] | – | – | > 64 | > 64 | > 64 |
| O=C(OCc1cc(=O)c(O)co1)c1ccc2nc(NC(=O)c3cc(Br)c(Br)[nH]3)sc2c1 [Example 39, (5-hydroxy-4-oxo-4H-pyran-2-yl)methyl 2-(4,5-dibromo-1H-pyrrole-2-carboxamido)benzo[d]thiazole-6-carboxylate] | 1400 ± 20 | > 64 | > 64 | > 64 | – |
| O=C(OCc1cc(=O)c(O)c[nH]1)c1ccc2nc(NC(=O)c3cc(Br)c(Br)[nH]3)sc2c1 [Example 40, (5-hydroxy-4-oxo-1,4-dihydropyridin-2-yl)methyl 2-(4,5-dibromo-1H-pyrrole-2-carboxamido)benzo[d]thiazole-6-carboxylate] | 1700 ± 360 | > 64 | > 64 | > 64 | – |
| Cc1[nH]c(C(=O)N(c2nc3ccc(C(=O)O)cc3s2)C(C)C)c(Cl)c1Cl [Example 41, 2-(3,4-dichloro-N-isopropyl-5-methyl-1H-pyrrole-2-carboxamido)benzo[d]thiazole-6-carboxylic acid] | 320 ± 70 | – | 32 (≈ 77.6 µM) | ≥ 32 | 32 (≈ 77.6 µM) |
| Cc1[nH]c(C(=O)N(c2nc3ccc(C(=O)O)cc3s2)C2CC2)c(Cl)c1Cl [Example 42, 2-(3,4-dichloro-N-cyclopropyl-5-methyl-1H-pyrrole-2-carboxamido)benzo[d]thiazole-6-carboxylic acid] | 24 ± 1 | – | 2 (≈ 4.87 µM) | > 64 | 0.25 (≈ 0.609 µM) |
| CCN(C(=O)c1[nH]c(C)c(Cl)c1Cl)c1nc2ccc(C(=O)O)cc2s1 [Example 43, 2-(3,4-dichloro-N-ethyl-5-methyl-1H-pyrrole-2-carboxamido)benzo[d]thiazole-6-carboxylic acid] | 7.2 ± 2 | – | 0.13 (≈ 0.326 µM) | 32 (≈ 80.3 µM) | 0.13 (≈ 0.326 µM) |
| Cc1[nH]c(C(=O)Nc2nc3ccc(C(=O)O)cc3s2)c(Cl)c1Br [Example 45, 2-(4-bromo-3-chloro-5-methyl-1H-pyrrole-2-carboxamido) benzo[d]thiazole-6-carboxylic acid] | < 5 | – | 0.13 (≈ 0.314 µM) | > 64 | 0.0625 (≈ 0.151 µM) |
